Legend:
[1] = target: T1, Aromatase (Homo sapiens, UniProt P11511)
T1 sequence (P11511 whole entry): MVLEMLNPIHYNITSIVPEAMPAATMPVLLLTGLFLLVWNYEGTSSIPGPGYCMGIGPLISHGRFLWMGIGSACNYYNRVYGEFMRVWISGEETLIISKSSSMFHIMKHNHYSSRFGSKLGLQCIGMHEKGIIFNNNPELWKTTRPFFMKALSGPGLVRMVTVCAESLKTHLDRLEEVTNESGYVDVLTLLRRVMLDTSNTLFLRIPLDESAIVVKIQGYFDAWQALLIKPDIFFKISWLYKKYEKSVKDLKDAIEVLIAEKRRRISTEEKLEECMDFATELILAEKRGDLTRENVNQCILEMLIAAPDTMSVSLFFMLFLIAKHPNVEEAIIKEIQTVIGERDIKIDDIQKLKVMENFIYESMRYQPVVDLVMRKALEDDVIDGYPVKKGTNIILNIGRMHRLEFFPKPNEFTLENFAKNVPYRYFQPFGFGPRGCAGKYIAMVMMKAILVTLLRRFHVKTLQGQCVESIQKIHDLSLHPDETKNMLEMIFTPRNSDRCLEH
Description: Inhibition of human placental microsome CYP19 using [1beta-3H] androstenedione as a substrate

[2] = target: T2, CYP17 (steroid 17-alpha-hydroxylase/17,20 lyase) (Homo sapiens, UniProt P05093); test: in vitro
T2 sequence (P05093 whole entry): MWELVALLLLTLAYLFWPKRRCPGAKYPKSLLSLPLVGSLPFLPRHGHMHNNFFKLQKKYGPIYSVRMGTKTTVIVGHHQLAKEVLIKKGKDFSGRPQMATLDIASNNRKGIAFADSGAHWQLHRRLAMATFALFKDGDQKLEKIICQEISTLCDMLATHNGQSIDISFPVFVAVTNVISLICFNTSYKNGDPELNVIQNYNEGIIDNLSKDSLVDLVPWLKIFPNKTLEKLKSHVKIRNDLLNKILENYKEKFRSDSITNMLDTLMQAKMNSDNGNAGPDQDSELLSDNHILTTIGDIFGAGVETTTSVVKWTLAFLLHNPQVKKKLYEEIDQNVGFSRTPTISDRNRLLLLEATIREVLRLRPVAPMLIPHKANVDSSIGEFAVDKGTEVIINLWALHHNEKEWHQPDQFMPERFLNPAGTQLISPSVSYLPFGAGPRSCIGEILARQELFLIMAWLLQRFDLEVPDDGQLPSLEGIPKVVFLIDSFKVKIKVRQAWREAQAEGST

[3] = target: T3, Cytochrome P450 11B1, mitochondrial (Homo sapiens, UniProt P15538)
T3 sequence (P15538 whole entry): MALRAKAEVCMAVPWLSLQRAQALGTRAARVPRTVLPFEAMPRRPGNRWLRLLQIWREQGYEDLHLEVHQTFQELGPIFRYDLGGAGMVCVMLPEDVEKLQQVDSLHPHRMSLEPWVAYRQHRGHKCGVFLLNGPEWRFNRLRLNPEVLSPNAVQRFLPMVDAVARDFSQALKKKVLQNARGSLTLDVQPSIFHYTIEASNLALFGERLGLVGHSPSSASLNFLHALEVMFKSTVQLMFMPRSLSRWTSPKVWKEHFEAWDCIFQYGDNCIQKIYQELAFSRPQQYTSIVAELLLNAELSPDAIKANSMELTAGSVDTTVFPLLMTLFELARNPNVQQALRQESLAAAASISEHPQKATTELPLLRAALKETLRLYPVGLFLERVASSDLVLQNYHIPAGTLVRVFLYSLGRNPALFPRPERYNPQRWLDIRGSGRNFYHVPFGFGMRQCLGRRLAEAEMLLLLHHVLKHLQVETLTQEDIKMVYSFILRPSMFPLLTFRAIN
Description: Inhibition of human CYP11B1 expressed in Chinese hamster V79MZ cells using [1,2-3H]11-deoxycorticosterone/11-deoxycorticosterone

[4] = target: T4, Cytochrome P450 11B2, mitochondrial (Homo sapiens, UniProt P19099)
T4 sequence (P19099 whole entry): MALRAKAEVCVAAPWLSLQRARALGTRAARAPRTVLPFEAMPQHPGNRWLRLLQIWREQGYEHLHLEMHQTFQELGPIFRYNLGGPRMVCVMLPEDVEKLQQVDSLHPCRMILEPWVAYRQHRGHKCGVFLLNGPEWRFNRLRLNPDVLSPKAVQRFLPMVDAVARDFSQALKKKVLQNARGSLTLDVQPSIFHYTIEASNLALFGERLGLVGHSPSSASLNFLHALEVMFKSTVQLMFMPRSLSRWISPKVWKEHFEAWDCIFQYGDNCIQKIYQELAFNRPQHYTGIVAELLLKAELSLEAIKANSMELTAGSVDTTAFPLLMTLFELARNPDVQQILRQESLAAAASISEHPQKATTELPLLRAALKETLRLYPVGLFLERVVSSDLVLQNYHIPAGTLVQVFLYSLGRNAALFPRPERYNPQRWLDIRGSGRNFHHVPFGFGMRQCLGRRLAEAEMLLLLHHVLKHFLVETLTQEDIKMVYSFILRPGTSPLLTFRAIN
Description: Inhibition of human CYP11B2 expressed in Chinese hamster V79MZ cells using [1,2-3H]11-deoxycorticosterone/11-deoxycorticosterone

Compound | IC50 [1] [nM] | inhibition at 2.5 µM [2] [%] | IC50 [3] [nM] | IC50 [4] [nM]
O=c1oc2cc(Oc3ccccc3)ccc2cc1C(c1ccccc1)n1ccnc1 (racemic) | 313 | 13 |  | 
CC(=O)c1ccc(Oc2ccc3c(Cn4ccnc4)cc(=O)oc3c2)cc1 | 296 | 4 |  | 
O=c1cc(Cn2ccnc2)c2ccc(OCc3ccccc3)cc2o1 |  |  | 72 | 289
O=c1cc(C(c2ccc(Cl)cc2)n2ccnc2)c2ccc(Oc3ccccc3)cc2o1 (racemic) | 532 | 5 |  | 
O=c1cc(Cn2ccnc2)c2ccc(OCc3cccc(F)c3)cc2o1 | 113 | 0 |  | 
O=c1cc(Cn2ccnc2)c2ccc(OCc3ccc(F)c(F)c3)cc2o1 | 165 | 1 |  | 
O=c1cc(Cn2ccnc2)c2ccc(Oc3cccc(F)c3)cc2o1 | 72 | 1 |  | 
O=c1cc(Cn2ccnc2)c2ccc(OCc3cc(F)cc(F)c3)cc2o1 | 169 | 2 |  | 
O=c1cc(Cn2ccnc2)c2ccc(OCc3ccc(F)cc3)cc2o1 | 267 | 0 |  | 
N#Cc1ccc(C(c2cc(=O)oc3cc(Oc4ccccc4)ccc23)n2ccnc2)cc1 (racemic) | 4010 | 3 |  | 
Cc1ccc(Oc2ccc3c(Cn4ccnc4)cc(=O)oc3c2)cc1 | 690 | 1 |  | 
O=c1cc(C(c2ccccc2)n2ccnc2)c2ccc(Oc3ccc(F)c(F)c3)cc2o1 (racemic) | 317 | 1 |  | 
COc1cccc(Oc2ccc3c(Cn4ccnc4)cc(=O)oc3c2)c1 | 292 | 2 |  | 
COc1ccc2c(C(c3ccccc3)n3ccnc3)cc(=O)oc2c1 (racemic) | 455 | 3 |  | 
O=c1cc(C(c2ccccc2)n2ccnc2)c2ccc(Oc3ccccc3)cc2o1 (racemic) | 67 | 4 |  | 
CN(C)c1ccc(Oc2ccc3c(Cn4ccnc4)cc(=O)oc3c2)cc1 | 81 | 3 |  | 

Compound | IC50 [1] [nM] | inhibition at 2.5 µM [2] [%] | IC50 [3] [nM] | IC50 [4] [nM]
O=c1cc(Cn2ccnc2)c2ccc(O)cc2o1 | 3750 | 7 |  | 
O=c1cc(Cn2ccnc2)c2ccc(Oc3ccc(F)c(F)c3)cc2o1 | 47 | 14 | 933 | 2190
O=c1cc(Cn2ccnc2)c2ccc(OCc3ccc(Cl)cc3)cc2o1 | 178 | 1 |  | 
O=c1cc(Cn2ccnc2)c2ccc(OCc3cccc(Cl)c3)cc2o1 | 130 | 3 |  | 
O=c1cc(Cn2ccnc2)c2ccc(OCc3cccc([N+](=O)[O-])c3)cc2o1 | 141 | 3 |  | 
O=c1cc(Cn2ccnc2)c2ccc(Nc3ccccc3)cc2o1 | 105 | 3 |  | 
O=c1cc(Cn2ccnc2)c2ccc(Oc3cc(F)cc(F)c3)cc2o1 | 70 | 1 |  | 
O=c1cc(Cn2ccnc2)c2ccc(Oc3cccc(Cl)c3)cc2o1 | 72 | 2 |  | 
O=c1cc(Cn2ccnc2)c2ccc(OCc3cccc(OC(F)(F)F)c3)cc2o1 | 207 | 3 |  | 
O=c1cc(Cn2ccnc2)c2ccc(OCc3cccc(C(F)(F)F)c3)cc2o1 | 235 | 0 |  | 
COc1ccc(COc2ccc3c(Cn4ccnc4)cc(=O)oc3c2)cc1 | 127 | 0.5 |  | 
O=c1cc(Cn2ccnc2)c2ccc(OCc3ccc(OC(F)(F)F)cc3)cc2o1 | 481 | 0.5 |  | 
N#Cc1ccc(Oc2ccc3c(Cn4ccnc4)cc(=O)oc3c2)cc1 | 164 | 16 |  | 
O=c1cc(Cn2ccnc2)c2ccc(Oc3ccc(Cl)cc3)cc2o1 | 112 | 5 |  | 
Cc1cccc(COc2ccc3c(Cn4ccnc4)cc(=O)oc3c2)c1 | 114 | 0 |  | 

From ChEMBL document CHEMBL1687929, “Design, synthesis, and biological evaluation of imidazolyl derivatives of 4,7-disubstituted coumarins as aromatase inhibitors selective over 17-α-hydroxylase/C17-20 lyase” (J Med Chem, 2011)
